Assay [1] deals with TARLL1b (Petromyzon marinus, UniProt A0AAJ7TCG4). The experiment in a line: Cell-based receptor activation reporter assay (SEAP / Dual-Glo luciferase). The arrangement: species or system sea lamprey. The note with it: for EC50: TARLL1b. As to the method: (§1) Fluorescence was measured with a BioTek Microplate reader.
Assay [2] deals with mouse TAAR1 (Mus musculus, UniProt Q923Y8). The assay is described as follows: cell-based. The note with it: for response of mouse TAAR1: ligands at 10 µM, luciferase assay, fig. 5B. The source says:
(§2) Next, we conducted high-throughput screening to further explore the functional properties of these aminergic receptors. We cloned 248 TAARs from 11 mammals (human, mouse, rat, guinea pig, hamster, cat, horse, rabbit, sheep, rhesus, and wild boar), two reptiles (alligator and chicken), six teleosts (zebrafish, catfish, fugu, medaka, salmon, and pufferfish), one lobed-finned fish (coelacanth), one holost fish (spotted gar), and one cartilaginous fish (bamboo shark) (fig. 2A). We also cloned eight TARLs from coelacanth, zebrafish, catfish, fugu, medaka, spotted gar, shark, and 28 TARLLs from sea lamprey (supplementary table S2, Supplementary Material online). In addition, we cloned two HTR4s from mouse and zebrafish. We then challenged all of the cloned receptors with a ligand library comprised 97 amines at 100 µM.
We then compared the responses of HTR4 from mouse and zebrafish, TARL1 from zebrafish, catfish, fugu, medaka, spotted gar, and coelacanth, TARL2 from coelacanth and shark, TAAR1 from mouse and zebrafish to the 16 ligands at 10 µM (fig. 5B).
(§3) HEK293 cells were plated onto poly-D-lysine (Sigma–Aldrich) preincubated 96-well plates (Corning) with 50 µl growth medium (DMEM medium with 10% BCS and 5% penicillin–streptomycin solution) and cultured for 18–24 h. Receptor plasmids were cotransfected with Cre-SEAP plasmid using polyethylenimine (PEI, Polysciences) and incubated at 37 °C with 5% CO2. About 4 h later, cells were incubated with or without test compounds diluted in serum-free DMEM for 48 h, followed by incubating for 2 h at 70 °C. After returning to room temperature, 50 µl supernatant from each well was incubated with an equal volume of 0.3 mM 4-methylumbelliferyl phosphate (4-MUP, Sigma–Aldrich) in 2 M diethanolamine bicarbonate (Sigma–Aldrich), pH 10.0 for 15 min. Fluorescence was measured with a BioTek Microplate reader.
(§4) Hana3A cells were plated onto 96-well plates (Greiner bio-one) with 50 µl growth medium (DMEM medium with 10% BCS and 5% penicillin–streptomycin solution with puromycin) and cultured at 37 °C with 5% CO2. After 18–24 h, cells in each well were cotransfected with 50 ng receptor plasmid, 10 ng CRE-Luc, 10 ng pRL-SV40, and 10 ng mRTPs using Lipofectamine 2000 (Invitrogen), and incubated for 18 h. Medium was then replaced by 25 µl CD293 (Invitrogen) containing 1% glutamine with or without test compounds for 4 h. The chemiluminescence of firefly luciferase and renilla luciferase were measured with a Biotek Microplate reader using the Dual-Glo Luciferase Assay System (Promega).

For assay [3], the target named is (UniProt Z9G6W3R3V9). The experiment in a line: Cell-based receptor activation reporter assay (SEAP / Dual-Glo luciferase). The following applies: coelacanth TARL1. As to the method: as §1
For assay [4], the target named is coelacanth TAARC1b (Latimeria chalumnae, UniProt H3A8V0). The description is as above. As to the method: as §1
Assay [5] deals with coelacanth TARL2 (Latimeria chalumnae, UniProt H3AWX3). The assay is described as above. As to the method: as §1
Assay [6] deals with zebrafish TAAR1 (Danio rerio, UniProt Q5QNN1). The description is as above. The following applies: zTAAR1. As to the method:
as §1

For assay [7], the target named is zebrafish TARL1 (Danio rerio, UniProt A0A8M1Q794). The assay is described as above. As to the method:
as §1

Assay [8] deals with TARLL4a (Petromyzon marinus, UniProt A0AAJ7T9R0). Described as above. Set-up: species or system sea lamprey. The note with it: for ligand profile of TARLL4a: ligand library at 100 µM, fig. 4B, fig. S9B; for EC50: TARLL4a. As to the method: as §1
The target of assay [9] is guinea pig TAAR3 (Cavia porcellus, UniProt H0W7C9). Described as above. As to the method: as §1
The target in assay [10] is hamster TAAR3 (Mesocricetus auratus, UniProt A0A1U7Q6M0). The description is as above. As to the method: as §1
Assay [11] concerns the target TARLL3h (Petromyzon marinus, UniProt A0A678XJN9). The assay is described as above. The arrangement: species or system sea lamprey. As to the method: as §1
Assay [12] deals with shark TAARS1b (Chiloscyllium punctatum, UniProt A0A401S5C1). The assay is described as above. Set-up: species or system bamboo shark. As to the method:
as §1

Assay [13] concerns the target sheep TAAR5 (Ovis aries, UniProt A0ACI6PZ16). The description is as above. As to the method:
as §1

In assay [14] the test system is cat TAAR9. The assay is described as above. The following applies: table S3. As to the method: as §1
Assay [15] concerns the target T1, hamster TAAR9 (Mesocricetus auratus, UniProt A0A1U7R5X1).
T1 construct: Rho tag (N-terminal 20 aa of bovine rhodopsin); expressed in transfected cells; host or cells: HEK293T (SEAP assay) or Hana3A (Dual-Glo luciferase assay)
T1 sequence (A0A1U7R5X1 1-348): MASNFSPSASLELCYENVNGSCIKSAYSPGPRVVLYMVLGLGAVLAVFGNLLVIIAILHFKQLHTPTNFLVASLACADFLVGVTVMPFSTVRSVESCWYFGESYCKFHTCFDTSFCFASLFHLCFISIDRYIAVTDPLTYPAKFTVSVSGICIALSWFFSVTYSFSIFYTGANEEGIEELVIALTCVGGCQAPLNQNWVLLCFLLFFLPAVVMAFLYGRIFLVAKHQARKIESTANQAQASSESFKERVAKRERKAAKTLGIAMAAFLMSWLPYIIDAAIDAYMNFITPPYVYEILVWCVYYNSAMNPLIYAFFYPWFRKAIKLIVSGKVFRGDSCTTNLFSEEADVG
Described as above. The note with it: table S3. As to the method: as §1

For assay [16], the target named is T2, rabbit TAAR9 (Oryctolagus cuniculus, UniProt G1SUU9).
T2 construct: Rho tag (N-terminal 20 aa of bovine rhodopsin); expressed in transfected cells; host or cells: HEK293T (SEAP assay) or Hana3A (Dual-Glo luciferase assay)
T2 sequence (G1SUU9 1-348): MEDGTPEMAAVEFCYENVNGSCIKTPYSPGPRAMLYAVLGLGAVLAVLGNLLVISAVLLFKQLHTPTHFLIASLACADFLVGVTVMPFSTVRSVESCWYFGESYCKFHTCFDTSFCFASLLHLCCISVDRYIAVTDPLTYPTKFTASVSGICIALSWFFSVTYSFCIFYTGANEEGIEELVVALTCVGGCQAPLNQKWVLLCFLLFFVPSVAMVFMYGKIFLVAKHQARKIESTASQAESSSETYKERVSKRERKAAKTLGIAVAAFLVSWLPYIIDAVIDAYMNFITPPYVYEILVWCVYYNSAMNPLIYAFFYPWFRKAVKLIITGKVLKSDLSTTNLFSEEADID
The description is as above. The following applies: table S3. As to the method: as §1

Assay [17] addresses T3, rat TAAR9 (Rattus norvegicus, UniProt Q923Y6).
T3 construct: bovine rhodopsin N-terminal 20 amino acids (Rho tag); expressed in transfected cells; host or cells: HEK293(T) (SEAP assay) or Hana3A (Dual-Glo assay)
T3 sequence (Q923Y6 1-338): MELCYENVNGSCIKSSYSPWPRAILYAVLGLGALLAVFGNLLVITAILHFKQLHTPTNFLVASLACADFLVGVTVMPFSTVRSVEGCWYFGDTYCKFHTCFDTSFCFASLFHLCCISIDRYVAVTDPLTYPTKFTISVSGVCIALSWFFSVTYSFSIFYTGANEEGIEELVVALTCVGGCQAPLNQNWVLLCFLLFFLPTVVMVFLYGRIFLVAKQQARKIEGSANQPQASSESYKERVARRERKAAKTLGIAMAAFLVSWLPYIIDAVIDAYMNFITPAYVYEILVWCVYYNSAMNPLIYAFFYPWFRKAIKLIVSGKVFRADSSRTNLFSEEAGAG
Described as above. The following applies: table S3. As to the method: as §1

Assay [18] relates to mouse TAAR9. Set-up: method as in Saraiva et al. 2016. The note with it: ref Saraiva et al. 2016; cited from earlier work.
For assay [19], the system named is TARLL2a (also called TAAR346a). Set-up: method as in Scott et al. 2019. The note with it: ref Scott et al. 2019; cited from earlier work.
For assay [20], the target named is mouse HTR4 (Mus musculus, UniProt P97288). The assay is described as follows: cell-based.
Description: as §2, §3, §4

The source of these data is publication PMC8890504, “Evolution of Brain-Expressed Biogenic Amine Receptors into Olfactory Trace Amine-Associated Receptors” (Molecular Biology and Evolution, 2022).

“And” between values parts separate entries of the source, which are not always exact repeats. Equal entries are not always repeated.

TARLL1b, sequence (A0AAJ7TCG4 entry or part of it): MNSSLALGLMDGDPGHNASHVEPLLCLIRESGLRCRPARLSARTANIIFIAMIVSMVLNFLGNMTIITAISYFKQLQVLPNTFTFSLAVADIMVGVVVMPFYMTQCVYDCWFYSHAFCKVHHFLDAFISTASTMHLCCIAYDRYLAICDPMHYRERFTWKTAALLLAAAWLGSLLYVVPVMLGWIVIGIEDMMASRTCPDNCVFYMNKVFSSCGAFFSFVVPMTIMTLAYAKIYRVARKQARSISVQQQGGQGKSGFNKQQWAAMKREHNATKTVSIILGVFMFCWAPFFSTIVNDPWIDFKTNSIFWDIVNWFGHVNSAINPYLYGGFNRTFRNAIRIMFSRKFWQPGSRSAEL
mouse TAAR1, sequence (Q923Y8 whole entry): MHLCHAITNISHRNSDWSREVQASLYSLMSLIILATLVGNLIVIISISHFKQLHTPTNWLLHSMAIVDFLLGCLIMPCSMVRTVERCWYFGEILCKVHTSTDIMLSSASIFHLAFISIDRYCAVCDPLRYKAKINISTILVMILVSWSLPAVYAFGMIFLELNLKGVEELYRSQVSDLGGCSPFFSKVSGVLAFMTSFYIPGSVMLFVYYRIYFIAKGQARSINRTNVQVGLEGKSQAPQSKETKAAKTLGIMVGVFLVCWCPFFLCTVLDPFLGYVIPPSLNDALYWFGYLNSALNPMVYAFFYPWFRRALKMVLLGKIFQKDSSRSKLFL
TARLL4a, sequence (A0AAJ7T9R0 entry or part of it): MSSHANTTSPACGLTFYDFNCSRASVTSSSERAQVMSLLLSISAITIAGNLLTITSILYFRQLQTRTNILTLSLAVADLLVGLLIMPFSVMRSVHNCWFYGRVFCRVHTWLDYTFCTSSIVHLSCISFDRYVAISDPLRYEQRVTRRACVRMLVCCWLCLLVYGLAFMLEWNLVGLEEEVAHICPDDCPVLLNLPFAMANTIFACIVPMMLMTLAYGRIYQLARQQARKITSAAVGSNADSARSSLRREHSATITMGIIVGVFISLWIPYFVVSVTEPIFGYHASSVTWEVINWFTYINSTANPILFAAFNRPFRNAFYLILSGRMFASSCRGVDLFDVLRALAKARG
guinea pig TAAR3, sequence (H0W7C9 entry or part of it): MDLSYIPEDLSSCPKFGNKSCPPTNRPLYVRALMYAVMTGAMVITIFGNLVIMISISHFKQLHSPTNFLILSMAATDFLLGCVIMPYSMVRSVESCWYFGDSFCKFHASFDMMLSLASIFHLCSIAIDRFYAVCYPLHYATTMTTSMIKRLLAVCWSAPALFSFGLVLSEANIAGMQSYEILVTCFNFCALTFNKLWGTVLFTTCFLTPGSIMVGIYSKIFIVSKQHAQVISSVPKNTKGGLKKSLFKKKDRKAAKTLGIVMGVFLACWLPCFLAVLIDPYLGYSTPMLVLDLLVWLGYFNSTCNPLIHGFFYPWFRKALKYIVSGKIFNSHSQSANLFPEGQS
hamster TAAR3, sequence (A0A1U7Q6M0 entry or part of it): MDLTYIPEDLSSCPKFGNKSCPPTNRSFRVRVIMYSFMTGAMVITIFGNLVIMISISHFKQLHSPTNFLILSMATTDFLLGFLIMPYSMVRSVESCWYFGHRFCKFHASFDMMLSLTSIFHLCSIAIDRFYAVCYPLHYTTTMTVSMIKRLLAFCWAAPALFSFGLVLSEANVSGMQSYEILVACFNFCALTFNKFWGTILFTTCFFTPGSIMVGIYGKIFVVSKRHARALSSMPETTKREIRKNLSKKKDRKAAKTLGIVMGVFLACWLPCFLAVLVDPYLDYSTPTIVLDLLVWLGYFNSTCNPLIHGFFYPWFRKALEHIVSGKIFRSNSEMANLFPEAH
sheep TAAR5, sequence (A0ACI6PZ16 entry or part of it): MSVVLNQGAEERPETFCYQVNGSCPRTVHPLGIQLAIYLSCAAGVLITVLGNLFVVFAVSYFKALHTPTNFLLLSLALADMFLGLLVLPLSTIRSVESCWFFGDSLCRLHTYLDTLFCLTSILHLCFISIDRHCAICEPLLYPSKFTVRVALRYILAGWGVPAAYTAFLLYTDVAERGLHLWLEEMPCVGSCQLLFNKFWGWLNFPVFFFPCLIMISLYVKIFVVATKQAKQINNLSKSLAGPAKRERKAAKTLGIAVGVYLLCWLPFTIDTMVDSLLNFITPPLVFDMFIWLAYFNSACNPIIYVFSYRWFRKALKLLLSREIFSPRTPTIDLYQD
coelacanth TAARC1b, sequence (H3A8V0 entry or part of it): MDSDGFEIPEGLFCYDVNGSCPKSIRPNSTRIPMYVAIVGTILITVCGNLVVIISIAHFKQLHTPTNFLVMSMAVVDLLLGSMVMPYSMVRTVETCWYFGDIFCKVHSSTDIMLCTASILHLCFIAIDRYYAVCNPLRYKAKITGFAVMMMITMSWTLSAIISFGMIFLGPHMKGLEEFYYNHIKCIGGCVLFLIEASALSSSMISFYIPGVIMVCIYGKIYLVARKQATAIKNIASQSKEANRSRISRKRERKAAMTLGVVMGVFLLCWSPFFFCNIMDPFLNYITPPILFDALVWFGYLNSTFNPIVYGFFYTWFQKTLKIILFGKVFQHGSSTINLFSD
TARLL3h, sequence (A0A678XJN9 entry or part of it): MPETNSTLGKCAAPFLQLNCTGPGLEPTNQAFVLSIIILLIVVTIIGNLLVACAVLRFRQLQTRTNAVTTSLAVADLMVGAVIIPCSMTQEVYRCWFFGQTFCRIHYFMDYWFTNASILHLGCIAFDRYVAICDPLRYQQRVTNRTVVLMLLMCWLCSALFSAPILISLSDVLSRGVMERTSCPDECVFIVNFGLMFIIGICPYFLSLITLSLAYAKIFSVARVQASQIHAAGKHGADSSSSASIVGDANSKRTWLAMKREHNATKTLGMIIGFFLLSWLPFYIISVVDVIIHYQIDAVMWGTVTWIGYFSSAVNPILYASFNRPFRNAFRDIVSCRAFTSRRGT
coelacanth TARL2, sequence (H3AWX3 entry or part of it): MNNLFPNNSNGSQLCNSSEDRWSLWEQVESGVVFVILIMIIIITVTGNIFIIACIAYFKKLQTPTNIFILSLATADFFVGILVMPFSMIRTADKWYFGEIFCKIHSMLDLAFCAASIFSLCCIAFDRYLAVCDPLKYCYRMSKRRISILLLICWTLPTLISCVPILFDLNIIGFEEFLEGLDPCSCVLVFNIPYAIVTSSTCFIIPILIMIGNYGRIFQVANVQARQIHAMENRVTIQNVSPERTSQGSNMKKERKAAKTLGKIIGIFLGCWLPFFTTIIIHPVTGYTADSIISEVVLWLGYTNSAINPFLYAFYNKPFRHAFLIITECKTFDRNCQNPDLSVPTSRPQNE
zebrafish TARL1, sequence (A0A8M1Q794 entry or part of it): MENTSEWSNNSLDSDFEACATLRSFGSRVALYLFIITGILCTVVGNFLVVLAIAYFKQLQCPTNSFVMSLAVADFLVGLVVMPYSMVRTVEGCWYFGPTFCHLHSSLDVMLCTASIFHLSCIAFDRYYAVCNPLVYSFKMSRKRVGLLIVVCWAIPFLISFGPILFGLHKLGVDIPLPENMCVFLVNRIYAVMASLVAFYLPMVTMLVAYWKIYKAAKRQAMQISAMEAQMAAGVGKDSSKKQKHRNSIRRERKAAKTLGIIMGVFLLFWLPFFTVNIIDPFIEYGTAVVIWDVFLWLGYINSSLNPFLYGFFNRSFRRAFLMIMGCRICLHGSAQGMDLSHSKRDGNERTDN
shark TAARS1b, sequence (A0A401S5C1 entry or part of it): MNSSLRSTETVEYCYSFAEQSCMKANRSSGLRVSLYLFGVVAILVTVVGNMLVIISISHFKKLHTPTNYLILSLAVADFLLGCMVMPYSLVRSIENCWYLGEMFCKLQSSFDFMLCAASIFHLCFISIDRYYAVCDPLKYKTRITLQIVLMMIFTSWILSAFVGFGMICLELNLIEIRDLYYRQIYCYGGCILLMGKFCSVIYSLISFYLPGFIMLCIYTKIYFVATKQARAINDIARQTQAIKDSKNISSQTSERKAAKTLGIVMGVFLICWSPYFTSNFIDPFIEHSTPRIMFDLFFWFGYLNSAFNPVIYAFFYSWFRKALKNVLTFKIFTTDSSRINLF
zebrafish TAAR1, sequence (Q5QNN1 entry or part of it): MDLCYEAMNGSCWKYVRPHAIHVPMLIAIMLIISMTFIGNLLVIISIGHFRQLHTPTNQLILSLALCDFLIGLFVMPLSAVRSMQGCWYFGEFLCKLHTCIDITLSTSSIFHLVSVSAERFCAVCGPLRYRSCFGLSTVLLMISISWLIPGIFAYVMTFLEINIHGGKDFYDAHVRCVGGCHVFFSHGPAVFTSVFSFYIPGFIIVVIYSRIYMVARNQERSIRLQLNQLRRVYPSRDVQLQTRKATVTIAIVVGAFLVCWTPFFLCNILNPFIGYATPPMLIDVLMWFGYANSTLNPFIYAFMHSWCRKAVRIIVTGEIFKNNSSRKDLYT
mouse HTR4, sequence (P97288 whole entry): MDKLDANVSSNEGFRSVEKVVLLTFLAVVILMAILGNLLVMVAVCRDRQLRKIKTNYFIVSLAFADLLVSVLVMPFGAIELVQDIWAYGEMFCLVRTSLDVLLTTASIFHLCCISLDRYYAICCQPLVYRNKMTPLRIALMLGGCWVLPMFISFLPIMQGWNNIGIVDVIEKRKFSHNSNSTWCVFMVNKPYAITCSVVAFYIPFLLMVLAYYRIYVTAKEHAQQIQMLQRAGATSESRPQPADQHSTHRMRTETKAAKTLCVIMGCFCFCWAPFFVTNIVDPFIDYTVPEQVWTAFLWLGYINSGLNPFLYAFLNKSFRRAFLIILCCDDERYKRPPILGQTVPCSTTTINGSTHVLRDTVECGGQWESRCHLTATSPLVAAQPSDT

For orientation: EC50 means the concentration giving half of the maximal effect. A higher EC50 goes with weaker potency. As for `c1ccc2[nH]ccc2c1` [Indole, indole], the EC50 in assay [1] came to 18.9 µM. In addition, the “activation of TARLL1b” value in assay [1] (fig. 4E, fig. S9D and E) is listed as “can be activated”.
Take `Cn1ccc2ccccc21` [1-methylindole]: in assay [1], the EC50 stood at 162 µM.
In the case of `Cc1ccc2[nH]ccc2c1` [5-methylindole], the EC50 in assay [1] worked out at 8.9 µM.
In [1], `Cc1cccc2cc[nH]c12` [7-methylindole] yielded an EC50 of 37.8 µM.
Regarding `CCCCCCCCN` [octylamine], in assay [2], the “response of mouse TAAR1” value is “slight responses”.
Take `NCCc1c[nH]c2ccc(O)cc12` [Serotonin, serotonin]: the EC50 is 0.2 µM in [1]; 14.4 µM in assay [2] (mTAAR1); 0.1 µM in [3]; 0.83 µM and 0.8 µM in assay [4]; 0.39 µM in [5]; 2.35 µM in assay [6]. Also, in [7], the EC50 turned out to be 0.11 µM.
Take `NC1CCCCC1` [cyclohexylamine]: the “ligand profile of TARLL4a” value in assay [8] is listed as “ligand profile includes”.
For `CC(C)CCN` [Isoamylamine, isoamylamine], the EC50 in assay [8] was 141 µM; in assay [9], 200 µM and ~200 µM; in assay [10] it was 300 µM and ~300 µM.
As for `CC(C)N` [Isopropylamine, isopropylamine], in assay [8], the EC50 worked out at 254 µM and the “ligand profile of TARLL4a” value is “ligand profile includes”.
`CCCN` [Propylamine, propylamine] came in with an EC50 in assay [8] of 133 µM.
`CN(C)CCCN(C)C` [N,N,N',N'-tetramethyl-1,3-propanediamine, N,N,N′,N′-Tetramethyl-1,3-propanediamine] registered a 50% effective concentration (EC50) in assay [11] (TARLL3h) of 116 µM. Besides, in assay [11] (fig. 4C), the “ligand recognition by TARLL3h” value is “recognizes”.
`CCCCCN` [Amylamine, amylamine] yielded a 50% effective concentration (EC50) in assay [8] of 10.6 µM.
In the case of `CC(C)N(C)C` [N,N-dimethylisopropylamine], the EC50 is 40.3 µM in assay [12]; 50 µM and ~50 µM in assay [13].
`Cc1c[nH]c2ccccc12` [3-methylindole]: in assay [1], the EC50 was found to be 6.6 µM.
As to `NCCCCNCCCN` [spermidine], the “activation of TAAR9” value in [14], in assay [15], in assay [16] and in assay [17] was “activation” each time. For the same molecule, in assay [18], the “ligand recognition by mouse TAAR9” value is “can recognize”.
With `NCCCCCO` [5-amino-1-pentanol], the EC50 in assay [8] is 40.3 µM.
In the case of `CCCCCCCN` [heptylamine], the “ligand profile of TARLL4a” value in assay [8] is on record as “ligand profile includes”. The “response of mouse TAAR1” value in assay [2] is recorded as “slight responses”.
Molecule `CSCCCN` [3-methylthiopropylamine] returned an EC50 in [8] of 62.4 µM.
In assay [8], `CC(C)CN` [Isobutylamine, isobutylamine] yielded an EC50 of 199 µM.
In the case of `NC1CCCC1` [Cyclopentylamine, cyclopentylamine], the midpoint of the response in assay [8], the EC50, lay at 113 µM.
Turning to `NCCCNCCCCNCCCN` [spermine], the “activation of TAAR9” value in [14], in [15], in assay [16] and in assay [17] was “activation” throughout. The “ligand recognition by mouse TAAR9” value in [18] is on record as “can recognize”. Also, the “ligand recognition by TARLL2a” value in assay [19] is given as “recognize”.
For `CCCCN` [Butylamine, butylamine], in [8], the EC50 stood at 73.5 µM.
`COc1ccc2[nH]cc(CCN)c2c1` [5-methoxytryptamine] showed an EC50 in assay [20] of 0.09 µM.
As for `CCCCCCN` [Hexylamine, hexylamine], in [8], a half-maximal response (EC50) required 20.4 µM and the “ligand profile of TARLL4a” value is listed as “ligand profile includes”. Besides, the “response of mouse TAAR1” value in assay [2] is given as “slight responses”.
The molecule `Cc1ccc2cc[nH]c2c1` [6-methylindole] gave an EC50 in assay [1] of 9.1 µM.
